Where a name gives a salt, the structure may show the parent alone.
Experiments:
[1] = target: T1, S1P1 (PathHunter CHO-K1 EDG1 β-Arrestin cell line) (Homo sapiens, UniProt P21453); experiment: S1P-1 β-Arrestin recruitment assay; assay type: cell-based; details: CHO-K1 EDG1 β-Arrestin cells, chemi-luminescence
T1 construct: host or cells: PathHunter CHO-K1 EDG1 β-Arrestin cell line
Outline: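 CHO-K1 cells expressing S1P1 and β-arrestin 2 fused to complementing β-galactosidase fragments, at 1×10^4 cells/well in pH 7.4 buffer with 0.1% BSA. Compound exposure 90 min at 37 °C then 15 min room temperature; chemiluminescent substrate added for 60 min before luminescence read.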

[2] = target: T2, S1P1 receptor (S1P1 expressing RH7777 membranes) (Homo sapiens, UniProt P21453); experiment: S1P1 GTPγS assay; assay type: biochemical; details: tested in one of the above S1P1 assays (two GTPγS formats)
T2 construct: expressed in transfected cells; host or cells: RH7777 cells (membranes)
Outline: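 Membranes from RH7777 cells expressing human S1P1 (1.5 μg/well) precoupled 30 min on ice to WGA SPA beads in 20 mM HEPES pH 7.4, 10 mM MgCl2, 100 mM NaCl, with 10 μM GDP and 90 μg/ml saponin. [35S]-GTPγS 0.5 nM final added with compound; SPA signal read immediately.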

T2 sequence (P21453 whole entry): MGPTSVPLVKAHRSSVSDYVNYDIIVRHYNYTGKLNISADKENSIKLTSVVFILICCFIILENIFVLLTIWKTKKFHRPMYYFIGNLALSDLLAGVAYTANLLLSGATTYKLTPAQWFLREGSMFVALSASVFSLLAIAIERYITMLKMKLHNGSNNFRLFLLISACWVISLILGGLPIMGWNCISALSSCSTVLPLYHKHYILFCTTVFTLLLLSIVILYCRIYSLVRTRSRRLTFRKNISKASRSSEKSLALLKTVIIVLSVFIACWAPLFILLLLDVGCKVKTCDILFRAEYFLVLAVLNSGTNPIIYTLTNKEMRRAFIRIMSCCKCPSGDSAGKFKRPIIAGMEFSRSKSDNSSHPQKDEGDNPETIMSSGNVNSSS
T1 sequence (P21453 whole entry): as above
T1 sequence (P32121 whole entry partner): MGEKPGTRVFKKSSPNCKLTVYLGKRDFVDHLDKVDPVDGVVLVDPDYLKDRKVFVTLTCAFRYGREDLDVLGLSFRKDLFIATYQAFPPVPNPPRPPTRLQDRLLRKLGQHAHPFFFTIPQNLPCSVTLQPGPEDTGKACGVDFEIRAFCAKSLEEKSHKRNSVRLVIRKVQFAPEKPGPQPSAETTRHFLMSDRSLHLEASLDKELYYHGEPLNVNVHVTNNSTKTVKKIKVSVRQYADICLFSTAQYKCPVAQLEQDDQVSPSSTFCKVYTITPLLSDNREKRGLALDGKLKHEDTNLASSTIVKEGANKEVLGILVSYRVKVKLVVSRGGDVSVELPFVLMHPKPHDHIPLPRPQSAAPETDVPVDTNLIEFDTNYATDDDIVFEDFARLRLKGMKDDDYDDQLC

Q: With `Cc1c(-c2noc(-c3ccc(OC(C)C)c(C#N)c3)n2)ccc2c1CCN(CC(O)CO)C2` (centres unmarked) [Example 6, 5-{3-[2-(2,3-Dihydroxypropyl)-5-methyl-1,2,3,4-tetrahydro-6-isoquinolinyl]-1,2,4-oxadiazol-5-yl}-2-[(1-methylethyl)oxy]benzonitrile] as the molecule, how does the EC50 [1] read?
A: Its EC50 is no more than 0.01 µM.

Q: And the EC50 [2]?
A: Its EC50 is no more than 0.1 µM.

Q: With `CNCCC(=O)N1CCc2ccc(-c3noc(-c4ccc(OC(C)C)c(C#N)c4)n3)cc2CC1` [Example 67, 5-{3-[3-(N-methyl-b-alanyl)-2,3,4,5-tetrahydro-1H-3-benzazepin-7-yl]-1,2,4-oxadiazol-5-yl}-2-[(1-methylethyl)oxy]benzonitrile] as the molecule, how does the EC50 [1] read?
A: Its EC50 is no more than 0.1 µM.

Q: And the EC50 [2]?
A: Its EC50 is no more than 0.1 µM.

Q: `CC(C)Oc1ncc(-c2nc(-c3ccc4c(c3)CCN(C(=O)[C@@H](N)[C@@H](C)O)CC4)no2)cc1C#N` [Example 77, 2-[(1-methylethyl)oxy]-5-[3-(3-L-threonyl-2,3,4,5-tetrahydro-1H-3-benzazepin-7-yl)-1,2,4-oxadiazol-5-yl]-3-pyridinecarbonitrile hydrochloride] was tested. Which EC50 [1] did it give?
A: Its EC50 is no more than 0.1 µM.

Q: And the EC50 [2]?
A: Its EC50 is no more than 1 µM.

Q: Which results are given for `Cc1c(-c2noc(-c3ccc(OC(C)C)c(C#N)c3)n2)ccc2c1CCN(CC(N)=O)C2` [Example 3, 2-[6-(5-{3-Cyano-4-[(1-methylethyl)oxy]phenyl}-1,2,4-oxadiazol-3-yl)-5-methyl-3,4-dihydro-2(1H)-isoquinolinyl]acetamide]?
A: EC50 [1]: ≤ 0.01 µM; EC50 [2]: ≤ 0.1 µM

Q: `CC(C)Oc1ccc(-c2nc(-c3ccc4c(c3)CCN(CC(=O)NC[C@H](O)CO)CC4)no2)cc1C#N` [Example 194, 2-[7-(5-{3-cyano-4-[(1-methylethyl)oxy]phenyl}-1,2,4-oxadiazol-3-yl)-1,2,4,5-tetrahydro-3H-3-benzazepin-3-yl]-N-[(2S)-2,3-dihydroxypropyl]acetamide hydrochloride] was tested. Which EC50 [1] did it give?
A: Its EC50 is no more than 0.01 µM.

Q: And the EC50 [2]?
A: The EC50 was no more than 0.1 µM.

Q: For `Cc1c(-c2noc(-c3ccc(OC(C)C)c(C#N)c3)n2)ccc2c1CCN(CCCC(N)=O)C2` [Example 4, 4-[6-(5-{3-Cyano-4-[(1-methylethyl)oxy]phenyl}-1,2,4-oxadiazol-3-yl)-5-methyl-3,4-dihydro-2(1H)-isoquinolinyl]butanamide], which EC50 [1] is on record?
A: The EC50 was no more than 0.01 µM.

Q: What about the EC50 [2] of the same molecule?
A: The EC50 was no more than 0.1 µM.

Q: What does the source list for `Cc1c(-c2noc(-c3ccc(OC(C)C)c(C#N)c3)n2)ccc2c1CCN(CC(=O)NC(CO)CO)C2` [Example 125, 2-[6-(5-{3-cyano-4-[(1-methylethyl)oxy]phenyl}-1,2,4-oxadiazol-3-yl)-5-methyl-3,4-dihydro-2(1H)-isoquinolinyl]-N-[2-hydroxy-1-(hydroxymethyl)ethyl]acetamide hydrochloride]?
A: EC50 [1]: ≤ 0.01 µM; EC50 [2]: ≤ 0.1 µM

Q: Which EC50 [1] does the source give for `Cc1c(-c2noc(-c3ccc(OC(C)C)c(C#N)c3)n2)ccc2c1CCN(C(CO)CO)C2` [Example 64, 5-(3-{2-[2-hydroxy-1-(hydroxymethyl)ethyl]-5-methyl-1,2,3,4-tetrahydro-6-isoquinolinyl}-1,2,4-oxadiazol-5-yl)-2-[(1-methylethyl)oxy]benzonitrile] here?
A: The EC50 was no more than 0.01 µM.

Q: And the EC50 [2]?
A: The EC50 was no more than 1 µM.

Q: With `CC(C)Nc1ncc(-c2nc(-c3ccc4c(c3)CCN(C(=O)CN)CC4)no2)cc1C#N` [Example 112, 5-[3-(3-glycyl-2,3,4,5-tetrahydro-1H-3-benzazepin-7-yl)-1,2,4-oxadiazol-5-yl]-2-[(1-methylethyl)amino]-3-pyridinecarbonitrile] as the molecule, how does the EC50 [1] read?
A: The EC50 was no more than 0.1 µM.

Q: What about the EC50 [2] of the same molecule?
A: The EC50 was no more than 1 µM.

Q: Which EC50 [1] does the source give for `Cc1c(-c2noc(-c3ccc(OC(C)C)c(C#N)c3)n2)ccc2c1CCN(C(=O)[C@@](C)(N)CO)C2` [Example 82, 2-[(1-methylethyl)oxy]-5-{3-[5-methyl-2-(2-methyl-L-seryl)-1,2,3,4-tetrahydro-6-isoquinolinyl]-1,2,4-oxadiazol-5-yl}benzonitrile] here?
A: Its EC50 is no more than 0.1 µM.

Q: What about the EC50 [2] of the same molecule?
A: The EC50 was no more than 1 µM.

Q: With `CNC(=O)CCN1CCc2c(ccc(-c3noc(-c4ccc(OC(C)C)c(C#N)c4)n3)c2C)C1` [Example 43, 3-[6-(5-{3-cyano-4-[(1-methylethyl)oxy]phenyl}-1,2,4-oxadiazol-3-yl)-5-methyl-3,4-dihydro-2(1H)-isoquinolinyl]-N-methylpropanamide] as the molecule, how does the EC50 [1] read?
A: The EC50 was no more than 0.01 µM.

Q: What about the EC50 [2] of the same molecule?
A: Its EC50 is no more than 0.01 µM.

Q: Which results are given for `CC(C)Oc1ccc(-c2nc(-c3ccc4c(c3)CCN(C(=O)CCN)CC4)no2)cc1C#N` [Example 69, 5-[3-(3-β-alanyl-2,3,4,5-tetrahydro-1H-3-benzazepin-7-yl)-1,2,4-oxadiazol-5-yl]-2-[(1-methylethyl)oxy]benzonitrile]?
A: EC50 [1]: ≤ 0.01 µM; EC50 [2]: ≤ 0.1 µM

Q: What does the source list for `Cc1c(-c2noc(-c3cnc(OC(C)C)c(C#N)c3)n2)ccc2c1CCN(C(CO)CO)C2` [Example 134, 5-(3-{2-[2-hydroxy-1-(hydroxymethyl)ethyl]-5-methyl-1,2,3,4-tetrahydro-6-isoquinolinyl}-1,2,4-oxadiazol-5-yl)-2-[(1-methylethyl)oxy]-3-pyridinecarbonitrile hydrochloride]?
A: EC50 [1]: ≤ 0.01 µM; EC50 [2]: ≤ 0.1 µM

Q: For `CC(C)Oc1ccc(-c2nc(-c3ccc4c(c3)CCN(CCC(N)=O)CC4)no2)cc1C#N` [Example 22, 3-[7-(5-{3-Cyano-4-[(1-methylethyl)oxy]phenyl}-1,2,4-oxadiazol-3-yl)-1,2,4,5-tetrahydro-3H-3-benzazepin-3-yl]propanamide], which EC50 [1] is on record?
A: Its EC50 is no more than 0.01 µM.

Q: And the EC50 [2]?
A: Its EC50 is no more than 0.1 µM.

Q: With `CC(C)Oc1ccc(-c2nc(-c3ccc4c(c3)CCN(C[C@@H](O)CO)CC4)no2)cc1C#N` [Example 74, 5-(3-{3-[(2R)-2,3-dihydroxypropyl]-2,3,4,5-tetrahydro-1H-3-benzazepin-7-yl}-1,2,4-oxadiazol-5-yl)-2-[(1-methylethyl)oxy]benzonitrile] as the molecule, how does the EC50 [1] read?
A: Its EC50 is no more than 0.1 µM.

Q: What about the EC50 [2] of the same molecule?
A: Its EC50 is no more than 0.1 µM.

Q: What does the source list for `Cc1c(-c2noc(-c3ccc(OC(C)C)c(C#N)c3)n2)ccc2c1CCN(C[C@@H](O)CO)C2` [Example 73, 5-(3-{2-[(2R)-2,3-dihydroxypropyl]-5-methyl-1,2,3,4-tetrahydro-6-isoquinolinyl}-1,2,4-oxadiazol-5-yl)-2-[(1-methylethyl)oxy]benzonitrile hydrochloride]?
A: EC50 [1]: ≤ 0.01 µM; EC50 [2]: ≤ 0.1 µM

Q: With `CC(C)Oc1ccc(-c2nc(-c3ccc4c(c3)CCN(C(CO)CO)CC4)no2)cc1C#N` [Example 68, 5-(3-{3-[2-hydroxy-1-(hydroxymethyl)ethyl]-2,3,4,5-tetrahydro-1H-3-benzazepin-7-yl}-1,2,4-oxadiazol-5-yl)-2-[(1-methylethyl)oxy]benzonitrile] as the molecule, how does the EC50 [1] read?
A: The EC50 was no more than 0.1 µM.

Q: And the EC50 [2]?
A: Its EC50 is no more than 0.1 µM.

Q: Which results are given for `Cc1c(-c2noc(-c3cnc(OC(C)C)c(C#N)c3)n2)ccc2c1CCN(C(=O)[C@@H](N)[C@@H](C)O)C2` [Example 79, 2-[(1-methylethyl)oxy]-5-[3-(5-methyl-2-L-threonyl-1,2,3,4-tetrahydro-6-isoquinolinyl)-1,2,4-oxadiazol-5-yl]-3-pyridinecarbonitrile hydrochloride]?
A: EC50 [1]: ≤ 0.01 µM; EC50 [2]: ≤ 0.1 µM

Q: Which results are given for `Cc1c(-c2noc(-c3ccc(OC(C)C)c(C#N)c3)n2)ccc2c1CCN(CC(=O)N[C@@H](C)CO)CC2` [Example 158, 2-[7-(5-{3-cyano-4-[(1-methylethyl)oxy]phenyl}-1,2,4-oxadiazol-3-yl)-6-methyl-1,2,4,5-tetrahydro-3H-3-benzazepin-3-yl]-N-[(1S)-2-hydroxy-1-methylethyl]acetamide]?
A: EC50 [1]: ≤ 0.01 µM; EC50 [2]: ≤ 0.1 µM

— US20120101083A1, “S1P1 AGONISTS COMPRISING A BICYCLIC N-CONTAINING RING” (GLAXO GROUP LIMITED, priority 2009, published 2012)
